Common to all, as to experiment: relative viability (nuclei count vs DMSO), 5 days (fraction); higher = more cells survive
Compound in assay [1]: CC1=CN2C(=O)C=C(N=C2C(=C1)C(C)NC3=CC=CC=C3)N4CCOCC4 [TGX 221] + CC(=O)c1c(C)c2cnc(Nc3ccc(N4CCNCC4)cn3)nc2n(C2CCCC2)c1=O [Palbociclib] (partner 0.5 µM)
Summed up:
(§1)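 Lung cancer cell lines, seeded in 1536-well plates, were treated the following day by pin tool with a single drug or with five library-drug doses (not always all listed) in √10 steps on top of a fixed anchor-drug dose. Cells were fixed and nuclei stained in one step after 5 days, and nuclei were counted. Relative viability is the nuclei count for treated wells divided by that for vehicle wells, reported as medians of duplicate plates.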

Compound in assay [2]: CC1=CN2C(=O)C=C(N=C2C(=C1)C(C)NC3=CC=CC=C3)N4CCOCC4 [TGX 221] + CC1(C)CCC(c2ccc(Cl)cc2)=C(CN2CCN(c3ccc(C(=O)NS(=O)(=O)c4ccc(N[C@H](CCN5CCOCC5)CSc5ccccc5)c(S(=O)(=O)C(F)(F)F)c4)cc3)CC2)C1 [Navitoclax] (partner 0.5 µM)
Summed up:
as §1

Compound in assay [3]: C1=CC=C(C(=C1)C2=CC=C(C=C2)C3=CSC4=C3C(=C(C(=O)N4)C#N)O)O + Cc1nc(Nc2ncc(C(=O)Nc3c(C)cccc3Cl)s2)cc(N2CCN(CCO)CC2)n1 [Dasatinib] (partner 0.075 µM)
In a few lines:
as §1

Compound in assay [4]: O=C(CCCCCCNC(=O)c1cnc(N(c2ccccc2)c2ccccc2)nc1)NO [Ricolinostat] + NC(=O)Nc1cc(-c2cccc(F)c2)sc1C(=O)N[C@H]1CCCNC1 [AZD7762] (partner 0.2 µM)
In a few lines:
as §1

Experimental findings from the supplement of paper PMC10307832 are described below.

Take NCI-H2347: the relative viability stood at 0.423 in assay [1] (first compound 0.08 µM); 0.427 in assay [1] (first compound 0.253 µM); 0.465 in assay [1] (first compound 0.8 µM); 0.391 in assay [1] (first compound 2.53 µM); 0.415 in assay [1] (first compound 8 µM); 0.796 in assay [2] (first compound 0.08 µM). The relative viability in assay [2] (first compound 0.253 µM) turned out to be 0.681; in assay [2] (first compound 0.8 µM) it was 0.598; in assay [2] (first compound 2.53 µM), 0.432; in assay [2] (first compound 8 µM) it was 0.49; in assay [3] (first compound 0.08 µM), 0.331; in assay [3] (first compound 0.253 µM), 0.276. Further, the relative viability in assay [3] (first compound 0.8 µM) worked out at 0.28; in assay [3] (first compound 2.53 µM) it was 0.284; in assay [3] (first compound 8 µM) it was 0.314; in assay [4] (first compound 0.08 µM), 0.57; in assay [4] (first compound 0.253 µM), 0.718; in assay [4] (first compound 0.8 µM), 0.665. Also, the relative viability in assay [4] (first compound 2.53 µM) amounted to 0.478.
Consider NCI-H2405, for which the relative viability was 0.482 in assay [1] (first compound 0.08 µM); 0.484 in assay [1] (first compound 0.253 µM); 0.504 in assay [1] (first compound 0.8 µM); 0.456 in assay [1] (first compound 2.53 µM); 0.482 in assay [1] (first compound 8 µM); 0.701 in assay [2] (first compound 0.08 µM). The relative viability in assay [2] (first compound 0.253 µM) is 0.815; in assay [2] (first compound 0.8 µM) it was 0.804; in assay [2] (first compound 2.53 µM) it was 0.668; in assay [2] (first compound 8 µM), 0.636; in assay [3] (first compound 0.08 µM) it was 0.206; in assay [3] (first compound 0.253 µM), 0.206. Also, the relative viability in assay [3] (first compound 0.8 µM) was 0.214; in assay [3] (first compound 2.53 µM), 0.201; in assay [3] (first compound 8 µM) it was 0.201; in assay [4] (first compound 0.08 µM), 0.698; in assay [4] (first compound 0.253 µM) it was 0.781; in assay [4] (first compound 0.8 µM), 0.738. In addition, the relative viability in assay [4] (first compound 2.53 µM) was 0.76.
Turning to NCI-H3122, the relative viability in assay [1] (first compound 0.08 µM) was 0.168; in assay [1] (first compound 0.253 µM), 0.154; in assay [1] (first compound 0.8 µM), 0.208; in assay [1] (first compound 2.53 µM) it was 0.169; in assay [1] (first compound 8 µM), 0.184; in assay [2] (first compound 0.08 µM), 1.09. The relative viability in assay [2] (first compound 0.253 µM) was determined as 1.03; in assay [2] (first compound 0.8 µM), 1.02; in assay [2] (first compound 2.53 µM), 1.09; in assay [2] (first compound 8 µM), 1.01; in assay [3] (first compound 0.08 µM) it was 1; in assay [3] (first compound 0.253 µM) it was 0.715. The relative viability is 0.91 in assay [3] (first compound 0.8 µM); 0.829 in assay [3] (first compound 2.53 µM); 0.721 in assay [3] (first compound 8 µM); 0.838 in assay [4] (first compound 0.08 µM); 1.03 in assay [4] (first compound 0.253 µM); 1.01 in assay [4] (first compound 0.8 µM). The relative viability in assay [4] (first compound 2.53 µM) was found to be 1.12.
Take PC-3 [JPC-3]: the relative viability amounted to 0.522 in assay [1] (first compound 0.08 µM); 0.516 in assay [1] (first compound 0.253 µM); 0.541 in assay [1] (first compound 0.8 µM); 0.499 in assay [1] (first compound 2.53 µM); 0.566 in assay [1] (first compound 8 µM); 0.722 in assay [2] (first compound 0.08 µM). Besides, the relative viability worked out at 0.768 in assay [2] (first compound 0.253 µM); 0.847 in assay [2] (first compound 0.8 µM); 0.806 in assay [2] (first compound 2.53 µM); 0.863 in assay [2] (first compound 8 µM); 0.818 in assay [3] (first compound 0.08 µM); 0.731 in assay [3] (first compound 0.253 µM). In addition, the relative viability in assay [3] (first compound 0.8 µM) was 0.913; in assay [3] (first compound 2.53 µM) it was 1.11; in assay [3] (first compound 8 µM) it was 0.953; in assay [4] (first compound 0.08 µM), 0.54; in assay [4] (first compound 0.253 µM), 0.695; in assay [4] (first compound 0.8 µM), 0.679. Moreover, in assay [4] (first compound 2.53 µM), the relative viability amounted to 0.665.
Regarding PC-14, the relative viability in assay [1] (first compound 0.08 µM) was 0.539; in assay [1] (first compound 0.253 µM), 0.408; in assay [1] (first compound 0.8 µM) it was 0.543; in assay [1] (first compound 2.53 µM) it was 0.577; in assay [1] (first compound 8 µM), 0.397; in assay [2] (first compound 0.08 µM), 0.951. Also, the relative viability in assay [2] (first compound 0.253 µM) came out at 1; in assay [2] (first compound 0.8 µM) it was 0.961; in assay [2] (first compound 2.53 µM) it was 1.01; in assay [2] (first compound 8 µM), 0.926; in assay [3] (first compound 0.08 µM) it was 0.244; in assay [3] (first compound 0.253 µM), 0.261. Further, the relative viability worked out at 0.272 in assay [3] (first compound 0.8 µM); 0.27 in assay [3] (first compound 2.53 µM); 0.239 in assay [3] (first compound 8 µM); 0.26 in assay [4] (first compound 0.08 µM); 0.321 in assay [4] (first compound 0.253 µM); 0.306 in assay [4] (first compound 0.8 µM). In addition, in assay [4] (first compound 2.53 µM), the relative viability was 0.26.
Take RERF-LC-KJ: the relative viability came to 1.06 in assay [1] (first compound 0.08 µM); 0.979 in assay [1] (first compound 0.253 µM); 1.09 in assay [1] (first compound 0.8 µM); 0.905 in assay [1] (first compound 2.53 µM); 0.914 in assay [1] (first compound 8 µM); 0.78 in assay [2] (first compound 0.253 µM). Moreover, the relative viability in assay [2] (first compound 0.8 µM) worked out at 0.913; in assay [2] (first compound 2.53 µM), 0.8; in assay [2] (first compound 8 µM), 1.14; in assay [3] (first compound 0.08 µM), 0.765; in assay [3] (first compound 0.253 µM) it was 0.889; in assay [3] (first compound 0.8 µM) it was 0.854. For the same cell line, the relative viability in assay [3] (first compound 2.53 µM) came to 0.771; in assay [3] (first compound 8 µM) it was 0.657; in assay [4] (first compound 0.08 µM), 0.864; in assay [4] (first compound 0.253 µM), 0.916; in assay [4] (first compound 0.8 µM), 0.832; in assay [4] (first compound 2.53 µM) it was 0.894.
